# Biological target: T1, mouse Nurr1 receptor (Mus musculus, UniProt Q06219)
# T1 construct: a cell line (N2A) endogenously expressing the mouse Nurr1 receptor; host or cells: Neuro-2A (N2A) mouse neuroblastoma cells stably transfected with 8NBRE-luciferase
# Test: In vitro activity on N2A cells (NBRE-luciferase reporter)
# Type: cell-based
# Conditions: N2A-8NBRE cells, 24 hours incubation
# Protocol: The activity of the compounds according to the invention was evaluated on a cell line (N2A) endogenously expressing the mouse Nurr1 receptor and stably transfected with the NOT binding response element (NBRE) coupled to the luciferase reporter gene. The EC50 values are between 0.01 and 1000 nM. The tests were carried out according to the procedure described below.
# The Neuro-2A cell line comes from a standard commercial source (ATCC). The Neuro-2A clone was obtained from a spontaneous tumour originating from a mouse A albino strain produced by R. J Klebe et al. This Neuro-2A line is subsequently stably transfected with 8NBRE-luciferase. The N2A-8NBRE cells are cultured at a confluence in 75 cm^2 culture flasks containing DMEM supplemented with 10% of foetal calf serum, 4.5 g/l of glucose and 0.4 mg/ml of geneticin. After one week of culture, the cells are recovered with 0.25% trypsin for 30 seconds, and then resuspended in DMEM without phenol red, containing 4.5 g/l of glucose and 10% of Hyclone defatted serum, and deposited in white, transparent-bottom, 96-well plates. The cells are deposited in a proportion of 60 000 per well in 75 μl for 24 hours before the addition of the products. The products are applied in 25 μl and incubated for a further 24 hours. On the day of the measurement, an equivalent volume (100 μl) of Steadylite, is added to each well, followed by a waiting period of 30 minutes in order to obtain complete lysis of the cells and maximum production of the signal. The plates are then measured in a microplate luminescence counter after having been sealed with an adhesive film. The products are prepared in the form of a stock solution at 10^−2 M, and then diluted in 100% of DMSO. Each product concentration is diluted beforehand in culture medium before incubation with the cells thus containing a final concentration of 0.625% of DMSO.
# T1 sequence (Q06219 whole entry): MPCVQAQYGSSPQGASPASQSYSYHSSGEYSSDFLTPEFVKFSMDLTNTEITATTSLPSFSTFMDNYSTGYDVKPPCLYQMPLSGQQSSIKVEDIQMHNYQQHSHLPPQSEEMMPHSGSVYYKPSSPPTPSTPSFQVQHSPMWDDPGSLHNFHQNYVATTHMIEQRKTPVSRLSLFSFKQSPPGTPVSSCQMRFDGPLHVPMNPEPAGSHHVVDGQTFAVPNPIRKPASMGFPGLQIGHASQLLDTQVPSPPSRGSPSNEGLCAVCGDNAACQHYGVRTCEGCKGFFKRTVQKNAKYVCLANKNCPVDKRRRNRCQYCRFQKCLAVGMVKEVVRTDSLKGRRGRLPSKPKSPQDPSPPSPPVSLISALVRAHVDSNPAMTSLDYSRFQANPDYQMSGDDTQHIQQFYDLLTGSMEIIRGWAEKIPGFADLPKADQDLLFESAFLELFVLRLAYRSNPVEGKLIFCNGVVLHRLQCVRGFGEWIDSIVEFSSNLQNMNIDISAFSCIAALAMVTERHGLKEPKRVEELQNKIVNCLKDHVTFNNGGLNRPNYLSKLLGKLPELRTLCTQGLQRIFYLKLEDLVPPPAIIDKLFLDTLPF
row,Structure (SMILES),EC50
1,"Nc1cccc(-c2ccc3nc(C(=O)c4ccccc4)cn3c2)n1 [Compound 1, [6-(6-Aminopyridin-2-yl)imidazo[1,2-a]pyridin-2-yl](phenyl)-methanone]",0.7 nM
2,"O=C(c1ccccc1)c1cn2cc(-c3cn[nH]c3)ccc2n1 [Compound 4, Phenyl[6-(1H-pyrazol-4-yl)imidazo[1,2-a]pyridin-2-yl]methanone]",0.5 nM
3,"O=C(c1ccccc1)c1cn2cc(-c3cccnc3)ccc2n1 [Compound 7, phenyl[(6-pyridin-3-yl)imidazo[1,2-a]pyridin-2-yl]methanone]",0.5 nM

# From patent US20100317687A1, “2-BENZOYLIMIDAZO[1,2-a]PYRIDINE DERIVATIVES, PREPARATION THEREOF AND THERAPEUTIC USE THEREOF” (sanofi-aventis, priority 2008, published 2010)
